In patent US8188101B2 (AstraZeneca AB, priority 2008, dated 2012):

What follows are compounds tested on Aβ42 release (assay: Aβ release in cells stably expressing APPswe, Meso Scale Discovery electrochemiluminescence assay). Settings: Homo sapiens, SH-SY5Y, HEK or SH-SY5Y cells stably expressing APPswe, 4-6 hours incubation with test compound.
Type: cell-based, Human
In short: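 HEK or SH-SY5Y cells stably expressing APPswe, plated 15-24 h, then exposed to compound (diluted ×200 into fresh medium) for 4-6 h at 37 °C. Secreted Aβ42 in medium quantified by Meso Scale Discovery electrochemiluminescence with specific antibodies; cytotoxicity checked by cellular ATP content.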

Row | Structure (SMILES) | IC50 [nM]
1 | CC(=O)N1CCc2nc(Nc3ccc(-c4cnco4)cc3)nc(N(C)Cc3ccccc3CO)c2C1 [Example 91, 1-(4-((2-(Hydroxymethyl)benzyl)(methyl)amino)-2-(4-(oxazol-5-yl)phenylamino)-7,8-dihydropyrido[4,3-d]pyrimidin-6(5H)-yl)ethanone] | 2510
2 | CC(=O)N1CCc2nc(Nc3ccc(-c4cnco4)cc3)nc(N(C)Cc3ccccn3)c2C1 [Example 92, 1-(4-(Methyl(pyridin-2-ylmethyl)amino)-2-(4-(oxazol-5-yl)phenylamino)-7,8-dihydropyrido[4,3-d]pyrimidin-6(5H)-yl)ethanone] | 5010
3 | CC(=O)N1CCc2nc(Nc3ccc(-c4cnco4)cc3)nc(N3CCCC(CO)C3)c2C1 (centres unmarked) [Example 93, 1-(4-(3-(Hydroxymethyl)piperidin-1-yl)-2-(4-(oxazol-5-yl)phenylamino)-7,8-dihydropyrido[4,3-d]pyrimidin-6(5H)-yl)ethanone] | 6310
4 | CC(=O)N1CCc2nc(Nc3ccc(-c4cnco4)cc3)nc(N3CCCCC3CO)c2C1 (centres unmarked) [Example 94, 1-(4-(2-(Hydroxymethyl)piperidin-1-yl)-2-(4-(oxazol-5-yl)phenylamino)-7,8-dihydropyrido[4,3-d]pyrimidin-6(5H)-yl)ethanone] | 5010
5 | COc1cccc(Cc2nc(Nc3ccc(-n4cnc(C)c4)c(OC)c3)nc3c2CN(C)CC3)c1 [Example 95, N-(3-Methoxy-4-(4-methyl-1H-imidazol-1-yl)phenyl)-4-(3-methoxybenzyl)-6-methyl-5,6,7,8-tetrahydropyrido[4,3-d]pyrimidin-2-amine] | 39.8
6 | COc1cccc(Cc2nc(Nc3ccc(-n4cnc(C)c4)c(OC)c3)nc3c2CN(C(C)=O)CC3)c1 [Example 96, 1-(2-(3-Methoxy-4-(4-methyl-1H-imidazol-1-yl)phenylamino)-4-(3-methoxybenzyl)-7,8-dihydropyrido[4,3-d]pyrimidin-6(5H)-yl)ethanone] | 63.1
7 | COc1cccc(Cc2nc(Nc3ccc(-n4ccnc4C)cc3)nc3c2CN(C(C)=O)CC3)c1 [Example 97, 1-(4-(3-Methoxybenzyl)-2-(4-(2-methyl-1H-imidazol-1-yl)phenylamino)-7,8-dihydropyrido[4,3-d]pyrimidin-6(5H)-yl)ethanone] | 631
8 | CC(=O)N1CCc2nc(Nc3ccc(-n4ccnc4C)cc3)nc(Cc3ccccc3F)c2C1 [Example 98, 1-(4-(2-Fluorobenzyl)-2-(4-(2-methyl-1H-imidazol-1-yl)phenylamino)-7,8-dihydropyrido[4,3-d]pyrimidin-6(5H)-yl)ethanone] | 794
9 | Cc1nccn1-c1ccc(Nc2nc3c(c(Cc4ccc(F)cc4)n2)CC(C(F)(F)F)CC3)cc1 (centres unmarked) [Example 99, 4-(4-Fluorobenzyl)-N-(4-(2-methyl-1H-imidazol-1-yl)phenyl)-6-(trifluoromethyl)-5,6,7,8-tetrahydroquinazolin-2-amine] | 316
10 | COc1cccc(Cc2nc(Nc3ccc(-n4cnc(C)c4)c(OC)c3)nc3c2COCC3)c1 [Example 100, N-(3-Methoxy-4-(4-methyl-1H-imidazol-1-yl)phenyl)-4-(3-methoxybenzyl)-7,8-dihydro-5H-pyrano[4,3-d]pyrimidin-2-amine] | 100
11 | COc1cc(Nc2nc3c(c(C(OC)c4ccccc4)n2)COCC3)ccc1-n1cnc(C)c1 (centres unmarked) [Example 101, 4-(Methoxy(phenyl)methyl)-N-(3-methoxy-4-(4-methyl-1H-imidazol-1-yl)phenyl)-7,8-dihydro-5H-pyrano[4,3-d]pyrimidin-2-amine] | 50.1
12 | COc1cc(Nc2nc3c(c(CCC4CCCO4)n2)COCC3)ccc1-n1cnc(C)c1 (centres unmarked) [Example 102, N-(3-Methoxy-4-(4-methyl-1H-imidazol-1-yl)phenyl)-4-(2-(tetrahydrofuran-2-yl)ethyl)-7,8-dihydro-5H-pyrano[4,3-d]pyrimidin-2-amine] | 126
13 | COc1cc(Nc2nc3c(c(C(C)(C)O)n2)COCC3)ccc1-n1cnc(C)c1 [Example 103, 2-(2-(3-Methoxy-4-(4-methyl-1H-imidazol-1-yl)phenylamino)-7,8-dihydro-5H-pyrano[4,3-d]pyrimidin-4-yl)propan-2-ol] | 100
14 | COc1cc(Nc2nc3c(c(C(C)n4nc(C)cc4C)n2)COCC3)ccc1-n1cnc(C)c1 (centres unmarked) [Example 104, 4-(1-(3,5-Dimethyl-1H-pyrazol-1-yl)ethyl)-N-(3-methoxy-4-(4-methyl-1H-imidazol-1-yl)phenyl)-7,8-dihydro-5H-pyrano[4,3-d]pyrimidin-2-amine] | 200
15 | COc1cc(Nc2nc3c(c(Cc4ccccc4)n2)CN(CC#N)CC3)ccc1-n1cnc(C)c1 [Example 105, 2-(4-Benzyl-2-(3-methoxy-4-(4-methyl-1H-imidazol-1-yl)phenylamino)-7,8-dihydropyrido[4,3-d]pyrimidin-6(5H)-yl)acetonitrile] | 15.8
16 | COc1cc(Nc2nc3c(c(Cc4ccccc4)n2)CNCC3)ccc1-n1cnc(C)c1 [Example 106, 4-Benzyl-N-(3-methoxy-4-(4-methyl-1H-imidazol-1-yl)phenyl)-5,6,7,8-tetrahydropyrido[4,3-d]pyrimidin-2-amine] | 63.1
17 | COc1cc(Nc2nc3c(c(Cc4ccccc4)n2)CN(C(C)=O)CC3)ccc1-n1cnc(C)c1 [Example 107, 1-(4-Benzyl-2-(3-methoxy-4-(4-methyl-1H-imidazol-1-yl)phenylamino)-7,8-dihydropyrido[4,3-d]pyrimidin-6(5H)-yl)ethanone] | 25.1
18 | COc1cc(Nc2nc3c(c(C(C)n4nc(C)cc4C)n2)CN(C(C)=O)CC3)ccc1-n1cnc(C)c1 (centres unmarked) [Example 108, 1-(4-(1-(3,5-Dimethyl-1H-pyrazol-1-yl)ethyl)-2-(3-methoxy-4-(4-methyl-1H-imidazol-1-yl)phenylamino)-7,8-dihydropyrido[4,3-d]pyrimidin-6(5H)-yl)ethanone] | 501
19 | COc1cc(Nc2nc3c(c(COC4CCCC4)n2)COCC3)ccc1-n1cnc(C)c1 [Example 109, 4-(Cyclopentyloxymethyl)-N-(3-methoxy-4-(4-methyl-1H-imidazol-1-yl)phenyl)-7,8-dihydro-5H-pyrano[4,3-d]pyrimidin-2-amine] | 20
20 | COc1cc(Nc2nc3c(c(CCN4CCCC4=O)n2)COCC3)ccc1-n1cnc(C)c1 [Example 110, 1-(2-(2-(3-Methoxy-4-(4-methyl-1H-imidazol-1-yl)phenylamino)-7,8-dihydro-5H-pyrano[4,3-d]pyrimidin-4-yl)ethyl)pyrrolidin-2-one] | 2510
21 | COc1cc(Nc2nc(CCC3CCCO3)c3c(n2)CCN(C(C)=O)C3)ccc1-n1cnc(C)c1 (centres unmarked) [Example 111, 1-(2-(3-Methoxy-4-(4-methyl-1H-imidazol-1-yl)phenylamino)-4-(2-(tetrahydrofuran-2-yl)ethyl)-7,8-dihydropyrido[4,3-d]pyrimidin-6(5H)-yl)ethanone] | 251
22 | COc1cc(Nc2nc(CCC3CCCO3)c3c(n2)CCN(C)C3)ccc1-n1cnc(C)c1 (centres unmarked) [Example 112, N-(3-Methoxy-4-(4-methyl-1H-imidazol-1-yl)phenyl)-6-methyl-4-(2-(tetrahydrofuran-2-yl)ethyl)-5,6,7,8-tetrahydropyrido[4,3-d]pyrimidin-2-amine] | 126
23 | Cc1nccn1-c1ccc(Nc2nc3c(c(Cc4ccccc4)n2)C[S+]([O-])CC3)cc1 (centres unmarked) [Example 114, 4-Benzyl-N-[4-(2-methyl-1H-imidazol-1-yl)phenyl]-7,8-dihydro-5H-thiopyrano[4,3-d]pyrimidin-2-amine 6-oxide] | 1580
